In patent publication US20240219373A1, “METHOD FOR EVALUATING EFFICACY OF ANTICANCER DRUG OR SCREENING ANTICANCER DRUG” (ORGANOIDSCIENCES LTD., priority 2021, published 2024):

Assays:
Assay type in all cases: cell-based, human
lung cancer organoids [1] = experiment: Growth and death rate of lung cancer organoids co-cultured with CD8+ T cells and DCs
Procedure: (§1) Specifically, in order to establish a co-culture system in which cancer organoids, cytotoxic T cells (hereinafter referred to as ‘CD8+ T cells’) and dendritic cells (hereinafter referred to as ‘DC’) coexist, the inventors set a mixing ratio satisfying co-culture conditions under which (1) cancer organoids grow properly and (2) drug efficacy is well observed. […] Herein, the number of organoids or cells was set to 1 for 5.0×10^3.
(§2) Cancer organoids were prepared to have a 3D structure by isolating colorectal cancer or lung cancer tissues obtained from patients into single cells and culturing them together with ECM (extracellular matrix). The formed cancer organoids were confirmed to be tumors through pathological analysis, and used after being isolated into single cells using Tryp-LE.
(§3) CD8+ T cells isolated from PBMCs were used. PBMCs were isolated from blood obtained from donors by using Ficoll, and CD8+ T cells were isolated through MACS after a T cell activation process.
(§4) DCs differentiated from iPSCs were used, and DCs were differentiated from the H9 cell line using a general method known in the art.
(§5) Specifically, for the co-cultures of cancer organoids, CD8+ T cells and DCs according to the mixing ratio in Table 7 above, those not treated with the drug were set as the control group (hereinafter referred to as ‘drug-untreated group’), and those treated with an atezolizumab targeting CD8+ T cells as an exemplary drug were set as the experimental group (hereinafter referred to as ‘drug-treated group’). Drugs were treated immediately after the start of co-culture, and the growth rate of cancer organoids was measured immediately after the start of the co-culture (0 h), after 24 hours (24 h), after 48 hours (48 h) and after 72 hours (72 h), respectively. The death rate was analyzed by the following method through the measured growth rate.

lung cancer organoids [2] = experiment: Growth and death rate of lung cancer organoids co-cultured with TILs
Procedure: (§6) Specifically, the inventors set a mixing ratio satisfying co-culture conditions under which (1) cancer organoids grow properly and (2) drug efficacy is well observed. Cancer organoids were prepared using cancer cells isolated from tumor tissues of lung cancer or colorectal cancer patients, and TILs obtained by co-culture with cancer organoids for 14 days according to Example 1.1 were used.
(§7) Herein, the number of organoids or TILs was set to 1 for 5.0×10^3.
(§8) In addition, for the co-cultures of cancer organoids and TILs according to the ratio above, those not treated with the drug were set as the control group (hereinafter referred to as ‘drug-untreated group’), and those treated with atezolizumab, which is currently marketed and used for a cancer treatment, as an exemplary drug were set as the experimental group (hereinafter referred to as ‘drug-treated group’). After co-culturing for 72 hours, the growth rate was measured immediately after the start of the co-culture (0 h), after 24 hours (24 h), after 48 hours (48 h) and after 72 hours (72 h), respectively, and the death rate was analyzed by the following method through the measured growth rate: Cancer organoid death rate (%)=[1−(growth rate of cancer organoids in the drug-treated group*)/(growth rate of cancer organoids in the drug-untreated group**)]×100

lung cancer organoids [3] = experiment: Death rate of lung cancer organoids co-cultured with CD8+ T cells and Tregs; conditions: 72 h
Procedure: (§9) Herein, the number of organoids or cells was set to 1 for 5.0×10^3.
(§10) Cancer organoids were prepared using stem cells isolated from tumor tissue of colorectal cancer or lung cancer patients. The isolated stem cells were mixed with ECM (extracellular matrix) to grow into a 3D structure to make a dome, and then organoids were formed and used through culture. CD8+ T cells and Tregs were obtained from blood obtained from colorectal cancer or lung cancer patients. Immune cells present in the blood were differentiated, and CD8+ and Treg cells were isolated from the differentiated immune cells using a MACS (magnetic activated cell sorting) method.
(§11) Specifically, for the co-cultures of cancer organoids, CD8+ T cells and Tregs according to the mixing ratio in Table 6 above, those not treated with the drug were set as the control group (hereinafter referred to as ‘drug-untreated group’), and those treated with an atezolizumab targeting CD8+ T cells or an anti-TIGIT antibody targeting CD8+ T cells or Tregs as an exemplary drug were set as the experimental group (hereinafter referred to as ‘drug-treated group’). After co-culturing them for 72 hours, the growth rate was measured after 72 hours of drug treatment (72 h), and the death rate was analyzed by the following method through the measured growth rate.

[4] = tested on: cancer organoids derived from colorectal cancer patients; experiment: Overall efficacy (organoid area change, HCS) in co-culture of cancer organoids, CD8+ T cells and M1; conditions: Groups 1, 3, 6 and 8: cancer organoids:M1 fixed 1:1, CD8+ T cell ratio changes; 10 nM; 72 hours
Description: In order to confirm whether the screening system composed of cancer organoids, CD8+ T cells and M1 as confirmed in Example 1.1 can be used to evaluate the efficacy of a drug, the death rate of cancer organoids by phagocytosis was observed after treating the system with an anti-PD-L1 antibody atezolizumab previously used as an immuno-anticancer drug, anti-CD47 antibody and a combination thereof.
Atezolizumab activates CD8+ T cells by binding to PD-L1 on cancer cells and blocking the PD-1/PD-L1 mechanism, and anti-CD47 antibody activates macrophages by binding to […] and blocking the SIRP-a/CD47 mechanism. […]
Then, they were co-cultured, and treated with 10 nM of Atezolizumab (Selleck, #A2004) which is anti-PD-L1 antibody and/or 10 nM of anti-CD47 antibody. After that, the death rate of cancer organoids or M1 was analyzed at each ratio. Herein, the ratio of the CD8+ T cells and M1 was tested in a narrower range than the ratio applied in Example 1.1, and the changes in organoid area for 72 hours after drug treatment was analyzed by HCS (High-Content Screening). After 72 hours from drug treatment, the overall efficacy was evaluated by calculating the change in the organoid area of the drug-treated group compared to the organoid area of the non-treated group.

[5] = tested on: colorectal cancer organoids; experiment: Death rate of colorectal cancer organoids co-cultured with CD8+ T cells and Tregs; conditions: 72 h
Procedure: as §9, §10, §11

[6] = tested on: colorectal cancer organoids; experiment: Growth and death rate of colorectal cancer organoids co-cultured with TILs
Procedure: as §6, §7, §8

[7] = tested on: colorectal cancer organoids; experiment: Growth and death rate of colorectal cancer organoids co-cultured with CD8+ T cells and DCs
Procedure: as §1, §2, §3, §4, §5

[8] = lung cancer organoids:TILs 1:0.5
[9] = lung cancer organoids:TILs 1:1.5
[10] = colorectal cancer organoids:TILs 1:0.5
[11] = colorectal cancer organoids:TILs 1:1.5

atezolizumab
death rate of cancer organoids, maximum level (lung cancer organoids [1]; lung cancer organoids:CD8+ T cells 1:0.5, DC 0.5 to 5, 72 h): about 5%
maximum death rate of cancer organoids (lung cancer organoids [1]; lung cancer organoids:CD8+ T cells 1:1, DC 0.5 to 5, 72 h): about 10%
growth of cancer organoids (lung cancer organoids [1]; lung cancer organoids:CD8+ T cells:DCs 1:0.5:0.5 to 5 or 1:1:0.5 to 1): did not significantly inhibit the growth
growth of cancer organoids (lung cancer organoids [1]; lung cancer organoids:CD8+ T cells:DCs 1:1:5 or 1:3:0.5 to 5): inhibited the growth
death rate of lung cancer organoids (lung cancer organoids [2]; [8]): about 5%
response of lung cancer organoids (growth rate and death rate vs control group) (lung cancer organoids [2]; [8]): did not respond to the drug
anticancer effects on lung cancer organoids (growth, death) (lung cancer organoids [2]; [9]): inhibiting the growth and increasing death
death rate of lung cancer organoids (lung cancer organoids [2]; [9]): about 20%
death rate of lung cancer organoids (lung cancer organoids [2]; lung cancer organoids:TILs 1:3): about 5%
death rate of cancer organoids, maximum level (lung cancer organoids [3]; lung cancer organoids:CD8+ T cells 1:1, Treg 0.5 to 3): about 10%
death rate of cancer organoids (lung cancer organoids [3]; lung cancer organoids:CD8+ T cells 1:3, with Tregs): about 25%
death rate of cancer organoids (lung cancer organoids [3]; lung cancer organoids:CD8+ T cells 1:3, without Tregs): about 27%
death rate of cancer organoids (lung cancer organoids [3]; lung cancer organoids:Tregs 1:3, without CD8+ T cells): about 1%
growth inhibition and death of cancer organoids (overall efficacy) [4]: high
death rate of cancer organoids, maximum level ([5]; colorectal cancer organoids:CD8+ T cells 1:1, Treg 0.5 to 3): about 10%
death rate of cancer organoids ([5]; colorectal cancer organoids:CD8+ T cells 1:3, with Tregs): about 25%
death rate of cancer organoids ([5]; colorectal cancer organoids:CD8+ T cells 1:3, without Tregs): about 26%
death rate of cancer organoids ([5]; colorectal cancer organoids:Tregs 1:3, without CD8+ T cells): about 2%
death rate of colorectal cancer organoids [6, 10]: about 5%
response of colorectal cancer organoids (growth rate and death rate vs control group) [6, 10]: did not respond to the drug
anticancer effects on colorectal cancer organoids (growth, death) [6, 11]: inhibiting the growth and increasing death
death rate of colorectal cancer organoids [6, 11]: about 10%
death rate of colorectal cancer organoids ([6]; colorectal cancer organoids:TILs 1:3): about 5%
death rate of cancer organoids, maximum level ([7]; colorectal cancer organoids:CD8+ T cells 1:0.5, DC 0.5 to 5, 72 h): about 5%
maximum death rate of cancer organoids ([7]; colorectal cancer organoids:CD8+ T cells 1:1, DC 0.5 to 5, 72 h): about 10%
growth of cancer organoids ([7]; colorectal cancer organoids:CD8+ T cells:DCs 1:0.5:0.5 to 5): did not significantly inhibit the growth
growth of cancer organoids ([7]; colorectal cancer organoids:CD8+ T cells:DCs 1:1 to 3:0.5 to 5): inhibited the growth
